US8906908B2, “Hydroxybupropion analogues for treating drug dependence” (priority 2010, dated 2014)

Assays:
α3β4*-nAChR = biological target: T1, α3β4*-nAChR (Homo sapiens, UniProt P30926+P32297); test: 86Rb+ efflux nAChR functional assay, SH-SY5Y cells; format: cell-based; conditions: EC80-EC90 carbamylcholine; SH-SY5Y; parentheses = S.E.M. as multiplication/division factor; read-out: nAChR inhibition IC50 α3β4±
T1 construct: other: EC80-EC90 carbamylcholine; SH-SY5Y; parentheses = S.E.M. as multiplication/division
Source text: Cell Lines and Culture: Human embryonic kidney (HEK-293) cells stably expressing human DAT, NET or SERT were maintained as previously described in Eshleman, A. J.; Carmolli, M.; Cumbay, M.; Martens, C. R.; Neve, K. A.; Janowsky, A., J. Pharmacol. Exp. Ther. 1999, 289, (2), 877-885. Use was made of several human cell lines that naturally or heterologously express specific, functional, human nAChR subtypes. Cells of the TE671/RD line naturally expresses muscle-type nAChR (a1β1γδ- or α1*-nAChR), and SH-SY5Y neuroblastoma cells naturally expresses autonomic α3β4*-nAChRs (containing α3, β4, probably α5, and sometimes β2 subunits). Different clones of SH-EP1 epithelial cell lines have been engineered to heterologously express either α4β2-nAChR, which are thought to be the most abundant, high affinity nicotine-binding nAChR in mammalian brain, or α4β4-nAChR, another possible brain nAChR subtype (SH-EP1-hα4β2 or α4β4 cells, respectively). These cells were maintained as low passage number (1-26 from our frozen stocks) cultures to ensure stable expression of native or heterologously-expressed nAChR as previously described (see Lukas, R. J.; Fryer, J. D.; Eaton, J. B.; L., G. C., Some methods for studies of nicotinic acetylcholine receptor pharmacology, in Nicotinic receptors and the Nervous System, Levine, E. D., Ed. CRC Press: Boca Raton, 2002; pp 3-27, incorporated herein by reference in its entirety). Cells were passaged once weekly by splitting just-confluent cultures 1/300 (TE671/RD), 1/5 (SH-SY5Y), or 1/20 (transfected SH-EP1) in serum-supplemented medium to maintain log-phase growth.
After cells had adhered (generally overnight, but no sooner than 4 h later), the medium was removed and replaced with 250 μL per well of complete medium supplemented with ˜350,000 cpm of ^86Rb^+ (PerkinElmer Life and Analytical Sciences, Boston, Mass.) and counted at 40% efficiency using Cerenkov counting (TriCarb 1900 liquid scintillation analyzer[…]; PerkinElmer Life Sciences).
After at least 4 h and typically overnight, ^86Rb^+ efflux was measured using the “flip-plate” technique. See Lukas, R. J.; Fryer, J. D.; Eaton, J. B.; L., G. C., Some methods for studies of nicotinic acetylcholine receptor pharmacology, in Nicotinic receptors and the Nervous System, Levine, E. D., Ed. CRC Press: Boca Raton, 2002; pp 3-27, incorporated herein by reference in its entirety). Briefly, after aspiration of the bulk of ^86Rb^+ loading medium from each well of the “cell plate,” each well containing cells was rinsed 3× with 2 mL of fresh ^86Rb^+ efflux buffer (130 mM NaCl, 5.4 mM KCl, 2 mM CaCl2, 5 mM glucose, 50 mM HEPES, pH 7.4) to remove extracellular ^86Rb^+. Following removal of residual rinse buffer by aspiration, the flip-plate technique was used again to simultaneously introduce 1.5 mL of fresh efflux buffer containing drugs of choice at indicated final concentrations from a 24-well “efflux/drug plate” into the wells of the cell plate. After a 5 min incubation, the solution was “flipped” back into the efflux/drug plate, and any remaining buffer in the cell plate was removed by aspiration. Cells remaining in the cell plate were lysed and suspended by addition of 1.5 mL of 0.1 M NaOH, 0.1% sodium dodecyl sulfate to each well.
Similarly, the sum of ^86Rb^+ in cell plates and efflux/drug plates also determined the efficiency of ^86Rb^+ loading (the percentage of applied ^86Rb^+ actually loaded into cells).
Specific efflux was then taken as the difference in control samples between total and non-specific ^86Rb^+ efflux. Any intrinsic agonist activity of test drugs was ascertained using samples containing test drug only at different concentrations and was normalized, after subtraction of non-specific efflux, to specific efflux in test drug-free, control samples.

[1] = system: Male Institute of Cancer Research (ICR) mice; test: Hot-plate test, blockade of nicotine-induced antinociception; format: in vivo; conditions: pretreatment 15 min before nicotine 2.5 mg/kg s.c., tested 5 min after nicotine
Source text: (§1) Animals: Male Institute of Cancer Research (ICR) mice (weighing 20-25 g) obtained from Harlan (Indianapolis, Ind.) were used throughout the study. Animals were housed in an Association for Assessment and Accreditation of Laboratory Animal Care-approved facility, were placed in groups of six, and had free access to food and water. Studies were approved by the Institutional Animal Care and Use Committee of Virginia Commonwealth University.
Hot-Plate Test: Mice were placed into a 10-cm wide glass cylinder on a hot plate (Thermojust Apparatus) maintained at 55° C. for assessment of pain responses mediated at supraspinal levels. To minimize tissue damage, a maximum exposure to the hot plate 40 s was imposed. Measures of control latencies (time until the animal jumped or licked its paws; typically 8-12 s) were done twice for stimuli applied at least 10 min apart for each mouse. Antinociceptive responses after test drug administrations were determined and calculated as the % MPE, where % MPE=[(test latency in s−control latency in s)/(40 s−control latency in s)×100]. Groups of 8 to 12 animals were used for each drug condition. […] The animals were then tested 5 min after administration of a subcutaneous dose of 2.5 mg/kg nicotine.

[2] = system: Male Institute of Cancer Research (ICR) mice; test: Body temperature, antagonism of nicotine-induced hypothermia; format: in vivo; conditions: pretreatment 15 min before nicotine 2.5 mg/kg s.c., tested 30 min after nicotine
Description: as §1
Body Temperature: Rectal temperature was measured by a thermistor probe (inserted 24 mm) and digital thermometer (YSI Inc., Yellow Springs, Ohio). Readings were taken just before and 30 min after subcutaneous injection of either saline or 2.5 mg/kg nicotine. The difference in rectal temperature before and after treatment was calculated for each mouse. The ambient temperature of the laboratory varied from 21 to 24° C. from day to day. […] The animals were then tested 30 min after administration of a subcutaneous dose of 2.5 mg/kg nicotine.

[3] = system: Male Institute of Cancer Research (ICR) mice; test: Tail-flick test, blockade of nicotine-induced antinociception; format: in vivo; conditions: for ED50: Mus musculus, 5 min, mice, pretreatment 15 min before nicotine 2.5 mg/kg s.c., tested 5 min after nicotine, read-out: AD50 Tail-flick
Source text: as §1
Tail-Flick Test: Antinociception for pain mediated at the spinal level was assessed by the tail-flick method of D'Amour, F. E.; Smith, D. L., J. Pharmacol. Exp. Ther. 1941, 72, 74-79, incorporated herein by reference in its entirety. In brief, mice were lightly restrained while a radiant heat source was shone onto the upper portion of the tail. To minimize tissue damage, a maximum latency of 10 s was imposed. Latency to remove the tail from the heat source was recorded for each animal. […] Antinociceptive response was calculated as the percentage of maximum possible effect (% MPE), where % MPE=[(test control)/(10 control)]×100.

T1 sequence (P32297 32-505): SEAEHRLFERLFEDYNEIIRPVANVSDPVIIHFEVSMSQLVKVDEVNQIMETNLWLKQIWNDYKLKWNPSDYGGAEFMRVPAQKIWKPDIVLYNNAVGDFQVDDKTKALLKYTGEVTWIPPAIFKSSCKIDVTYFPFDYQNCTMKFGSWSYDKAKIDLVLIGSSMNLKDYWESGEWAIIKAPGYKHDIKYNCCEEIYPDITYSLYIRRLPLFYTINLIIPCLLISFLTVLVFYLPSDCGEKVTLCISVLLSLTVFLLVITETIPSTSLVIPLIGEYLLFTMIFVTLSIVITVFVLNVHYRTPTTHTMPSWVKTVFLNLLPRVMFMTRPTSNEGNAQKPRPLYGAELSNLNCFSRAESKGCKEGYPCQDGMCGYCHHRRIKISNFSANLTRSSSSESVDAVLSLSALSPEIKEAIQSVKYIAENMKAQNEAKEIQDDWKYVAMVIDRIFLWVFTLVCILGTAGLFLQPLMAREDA
T1 sequence (P30926 22-498): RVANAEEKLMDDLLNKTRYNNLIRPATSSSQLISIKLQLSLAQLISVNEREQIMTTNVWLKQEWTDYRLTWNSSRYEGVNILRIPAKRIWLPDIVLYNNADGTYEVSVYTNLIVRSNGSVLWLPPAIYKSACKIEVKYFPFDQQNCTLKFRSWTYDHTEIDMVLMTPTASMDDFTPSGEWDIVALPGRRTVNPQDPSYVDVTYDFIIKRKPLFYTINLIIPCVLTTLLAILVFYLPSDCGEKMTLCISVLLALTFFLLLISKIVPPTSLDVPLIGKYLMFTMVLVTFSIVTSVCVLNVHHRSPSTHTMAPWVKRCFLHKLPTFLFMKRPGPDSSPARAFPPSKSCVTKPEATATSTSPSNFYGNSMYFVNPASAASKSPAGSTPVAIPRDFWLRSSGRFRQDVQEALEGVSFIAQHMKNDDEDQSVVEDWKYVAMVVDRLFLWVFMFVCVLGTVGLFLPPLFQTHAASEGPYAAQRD

Row | Compound | IC50 (α3β4*-nAChR) | AD50 Hot-plate [1] | AD50 Hypothermia [2] | ED50 [3] | activity in the tail-flick assay relative to (2S,3S)-4a ([3]; higher activity than (2S,3S)-4a)
1 | C[C@@H]1NC(C)(C)CO[C@@]1(O)c1ccc2ccccc2c1 [Compound 4r, (2S,3S)-2-(Naphthalen-2-yl)-3,5,5-trimethylmorpholin-2-ol] | 2 µM | IA (IA: AD50 > 15 mg/kg) | IA (IA: AD50 > 15 mg/kg) | 0.04 mg/kg | ~5 fold
2 | C[C@@H]1N(C)C(C)(C)CO[C@@]1(O)c1cccc(Cl)c1 [Compound 4u, (2S,3S)-2-(3-Chlorophenyl)-3,4,5,5-tetramethylmorpholin-2-ol] | 6.5 µM | IA (IA: AD50 > 15 mg/kg) | IA (IA: AD50 > 15 mg/kg) | 0.016 mg/kg | 
3 | C[C@@H]1N(C)C(C)(C)CO[C@@]1(O)c1ccc(Cl)cc1 [Compound 4v, (2S,3S)-2-(4-Chlorophenyl)-3,4,5,5-tetramethylmorpholin-2-ol] | 4.6 µM | IA (IA: AD50 > 15 mg/kg) | IA (IA: AD50 > 15 mg/kg) | 0.32 mg/kg | 
